Data from patent US10030016B2 (Sunesis Pharmaceuticals, Inc., priority 2009, dated 2018).
Where a name gives a salt, the structure may show the parent alone.

Test system: phospho-akt (Thr308) in PC-3 cells
Test: Inhibition of phospho-akt (Thr308) in PC-3 cells, MSD phospho-akt 308 ELISA kit
Format: cell-based
Conditions: Homo sapiens; inhibition of P308 Akt in PC-3 cells using MSD, 2 hours, no serum; read-out: EC50
Description: PC-3 cells were harvested by trypsin and counted. Cells were plated in coated 96-well flat bottom plates (plate 15,000 cells/well in 100 ul growth media (10% FBS, 1× pen-strep) an place in an incubator overnight.
Subject inhibitors were stocked at 50 mM, then diluted to 30 mM (4.8 μl cpd plus […] DMSO) in 100% DMSO. Three-fold dilutions were performed from 30 mM stock. (4 μl into 8 ul 100% DMSO). Aliquots of 1.0 μl of inhibitor solution were transferred into SF Medium (using deep well block).
Control wells were prepared as follows. For DMSO high controls, 1.0 μl of 100% DMSO was added into 1.0 ml SF. For low controls for PC-3 cells, 5 μM of Wortmannin (10 μl of 1 mM Wortmannin stock was added into 2 ml SF Medium. The supernatant media was removed and the plate was blotted. 100 μl of controls/media or compound/media were added to cells and placed in incubator for 2 hours. The supernatant media was removed and the plate was blotted. 55 μl of the MSD complete lysis buffer was added (10 mls Tris Lysis buffer, 200 ul protease inhibitor, 100 ul phosphatase inhibitor 1, and 100 ul phosphatase inhibitor II). The plate was placed on a plate shaker for 60 mins at 4 deg.
MSD plates were blocked for 1 hour by adding 150 μl of Blocking Solution (3% BSA) to each well. The MSD plates were washed 4× with TBST, and 50 μl lysates were transferred to MSD plate and place on plate shaker shake at 4 degrees O/N, light shaking (speed 3.5). The plate was washed 4× with TBST.
25 μl of Ab detection solution was added to each well. The plate was sealed and incubated 1 hr RT, light shaking (speed 3.5). The plate was washed 4 times with TBST. 150 μl of Read Buffer was added (5 mls 4×MSD Read Buffer+15 mls water). Finally the plate was read immediately on the MSD plate reader.

Row | EC50 | SMILES
1 | < 1 µM | C[C@H](NC(=O)c1cc(C#N)cnc1NCc1ccc(-c2cnc3[nH]nc(N)c3c2)cc1F)c1ccc(F)cc1 [Example 407, 2-[4-(3-Amino-1H-pyrazolo [3,4-b]pyridin-5-yl)-2-fluoro-benzylamino]-5-cyano-N-[(S)-1-(4-fluoro-phenyl)-ethyl]-nicotinamide]
2 | < 1 µM | C[C@H](NC(=O)c1cc(C#N)cnc1NCc1ccc(-c2cnc3[nH]c(=O)[nH]c3c2)c(F)c1)c1ccc(F)cc1 [Example 127, (S)-5-cyano-2-(3-fluoro-4-(2-oxo-2,3-dihydro-1H-imidazo[4,5-b]pyridin-6-yl)benzyl-amino)-N-(1-(4-fluorophenyl)ethyl) nicotinamide]
3 | 1 to 10 µM | C[C@H](NC(=O)c1cc(C#N)cnc1NCc1ccc(-c2cnc3[nH]nc(N)c3c2)cc1Cl)c1ccc(F)cc1 [Example 406, 2-[4-(3-Amino-1H-pyrazolo [3,4-b]pyridin-5-yl)-2-chloro-benzylamino]-5-cyano-N-[(S)-1-(4-fluoro-phenyl)-ethyl]-nicotinamide]
4 | < 1 µM | C[C@H](NC(=O)c1cc(C#N)cnc1N[C@H](C)c1ccc(-c2cnc3[nH]nc(N)c3c2)nc1)c1ccc(F)cc1 [Example 416, 2-{(R)-1-[6-(3-Amino-1H-pyrazolo[3,4-b]pyridin-5-yl)-pyridin-3-yl]-ethylamino}-5-cyano-N-[(S)-1-(4-fluoro-phenyl)-ethyl]-nicotinamide]
5 | 1 to 10 µM | N#Cc1cc(F)ccc1NC(=O)c1cc(C(F)(F)F)cnc1NCc1ccc(-c2cnc3[nH]nc(N)c3c2)cc1 [Example 418, 2-(4-(3-amino-1H-pyrazolo [3,4-b]pyridin-5-yl)benzylamino)-N-(2-cyano-4-fluorophenyl)-5-(trifluoromethyl)nicotinamide]
6 | 1 to 10 µM | C[C@H](NC(=O)c1nc(C(F)(F)F)cnc1N[C@H](C)c1ccc(-c2cnc3[nH]nc(N)c3c2)cc1)c1ccc(F)c(F)c1 [Example 427, 3-((R)-1-(4-(3-amino-1H-pyrazolo[3,4-b]pyridin-5-yl)phenyl)ethylamino)-N-((S)-1-(3,4-difluorophenyl)ethyl)-6-(trifluoromethyl) pyrazine-2-carboxamide]
7 | < 1 µM | C[C@H](NC(=O)c1nc(C#N)cnc1NCC#Cc1ccc2nc(N)ncc2c1)c1ccc(F)c(F)c1 [Example 258, (S)-3-(3-(2-aminoquinazolin-6-yl)prop-2-ynylamino)-6-cyano-N-(1-(3,4-difluorophenyl)ethyl) pyrazine-2-carboxamide]
8 | < 1 µM | Nc1ncc(-c2ccc(CNc3ncc(C(F)(F)F)cc3C(=O)Nc3ccc(F)cc3)cc2)nc1CO [Example 242, 2-[4-(5-Amino-6-hydroxy-methyl-pyrazin-2-yl)-benzylamino]-N-(4-fluoro-phenyl)-5-trifluoromethyl-nicotinamide]
9 | < 1 µM | C[C@H](NC(=O)c1nc(C#N)cnc1NCc1ccc(-c2cnc(N)c(CO)n2)cc1)c1ccc(F)c(F)c1 [Example 241, 3-[4-(5-Amino-6-hydroxy-methyl-pyrazin-2-yl)-benzylamino]-6-cyano-pyrazine-2-carboxylic acid [(S)-1-(3,4-difluoro-phenyl)-ethyl]-amide]
10 | < 1 µM | C[C@H](NC(=O)c1cc(C#N)cnc1NCc1ccc(-c2cnc3[nH]c(=O)n(C)c3c2)cc1)c1ccc(F)cc1 [Example 140, (S)-5-cyano-N-(1-(4-fluorophenyl)ethyl)-2-(4-(1-methyl-2-oxo-2,3-dihydro-1H-imidazo [4,5-b]pyridin-6-yl)benzylamino)nicotinamide]
11 | < 1 µM | N#Cc1cnc(NCc2ccc(-c3cnc4[nH]ncc4c3)cc2)c(C(=O)NCc2ccc(F)c(F)c2)c1 [Example 396, 5-Cyano-N-(3,4-difluoro-benzyl)-2-[4-(1H-pyrazolo[3,4-b]pyridin-5-yl)-benzylamino]-nicotinamide]
12 | < 1 µM | C[C@H](NC(=O)c1nc(C(F)(F)F)cnc1NCc1ccc(-c2cnc3[nH]nc(N)c3c2)cc1)c1ccc(F)c(F)c1 [Example 428, (S)-3-(4-(3-amino-1H-pyrazolo[3,4-b]pyridin-5-yl)benzylamino)-N-(1-(3,4-difluorophenyl)ethyl)-6-(trifluoromethyl) pyrazine-2-carboxamide]
13 | < 1 µM | C[C@H](NC(=O)c1nc(C#N)cnc1N[C@H](C)c1ccc(-c2cnc3[nH]nc(N)c3c2)nc1)c1ccc(F)c(F)c1 [Example 415, 3-{(R)-1-[6-(3-Amino-1H-pyrazolo[3,4-b]pyridin-5-yl)-pyridin-3-yl]-ethylamino}-6-cyano-pyrazine-2-carboxylic acid [(S)-1-(3,4-difluoro-phenyl)-ethyl]-amide]
14 | < 1 µM | C[C@H](NC(=O)c1cc(C#N)cnc1NCC#Cc1ccc2nc(N)ncc2c1)c1ccc(F)cc1 [Example 257, (S)-2-(3-(2-aminoquinazolin-6-yl)prop-2-ynylamino)-5-cyano-N-(1-(4-fluorophenyl)ethyl)nicotinamide]
15 | > 10 µM | Cc1nc(N)cnc1-c1ccc(CNc2ncc(C#N)cc2C(=O)N[C@@H](C)c2ccc(F)cc2)cc1 [Example 107, (S)-2-(4-(5-amino-3-methylpyrazin-2-yl)benzylamino)-5-cyano-N-(1-(4-fluorophenyl)ethyl)nicotinamide]

Same assay, conditions: Homo sapiens; inhibition of P308 Akt in PC-3 cells, 2 hours, no serum, MSD; read-out: EC50

Row | EC50 | SMILES
16 | 1 to 10 µM | Nc1ncnc2ccc(-c3ccc(CNc4ncccc4C(=O)NCc4cncc(F)c4)s3)cc12 [Example 3.65, 2-({[5-(4-aminoquinazolin-6-yl)thiophen-2-yl]methyl}amino)-N-[(5-fluoropyridin-3-yl)methyl] pyridine-3-carboxamide (TFA salt)]
17 | < 1 µM | CCc1cnc(NCc2ccc(-c3ccc4ncnc(N)c4c3)s2)c(C(=O)NCc2ccc(F)c(F)c2)c1 [Ex. 8.11, 2-({[5-(4-aminoquinazolin-6-yl)thiophen-2-yl]methyl}amino)-N-(3,4-difluorobenzyl)-5-ethylpyridine-3-carboxamide]
18 | > 10 µM | Cc1ccc(NC(=O)c2cccnc2NCc2ccc(-c3ccc4ncnc(N)c4c3)s2)cc1F [Example 3.50, 2-({[5-(4-aminoquinazolin-6-yl)thiophen-2-yl]methyl}amino)-N-(3-fluoro-4-methylphenyl) pyridine-3-carboxamide (TFA salt)]
19 | 1 to 10 µM | C[C@H](NC(=O)c1cccnc1NCc1ccc(-c2ccc3ncnc(NCCO)c3c2)s1)c1ccc(F)cc1 [Example 2.14, (S)-N-(1-(4-fluorophenyl)ethyl)-2-(((5-(4-(2-hydroxyethylamino)quinazolin-6-yl)thiophen-2-yl)methyl)amino)nicotinamide]
20 | > 10 µM | Nc1ncnc2ccc(-c3ccc(CNc4ncc(Br)cc4S(=O)(=O)NCc4ccc(F)c(F)c4)s3)cc12 [Example 20.1, 2-(((5-(4-aminoquinazolin-6-yl)thiophen-2-yl)methyl)amino)-5-bromo-N-(3,4-difluorobenzyl)pyridine-3-sulfonamide]
21 | 1 to 10 µM | COCCNC(=O)c1cccnc1NCc1ccc(-c2ccc3ncnc(N)c3c2)s1 [Example 3.35, 2-({[5-(4-aminoquinazolin-6-yl)thiophen-2-yl]methyl}amino)-N-(2-methoxyethyl)pyridine-3-carboxamide (TFA salt)]
22 | > 10 µM | C[C@H](NC(=O)c1cccnc1NCc1ccc(-c2ccc3nc(N)sc3c2)s1)c1ccc(F)cc1 [Example 2.22, (S)-2-(((5-(2-aminobenzo[d]thiazol-6-yl)thiophen-2-yl)methyl)amino)-N-(1-(4-fluorophenyl)ethyl) nicotinamide]
23 | > 10 µM | C[C@H](NC(=O)c1cccnc1NCc1ccc(-c2cc3c(cn2)ncn3C)s1)c1ccc(F)cc1 [Example 2.6, (S)-N-(1-(4-fluorophenyl)ethyl)-2-(((5-(1-methyl-1H-imidazo [4,5-c]pyridin-6-yl)thiophen-2-yl)methyl)amino)nicotinamide]
